From US10167262B2, “Herbicidal substituted 3-arylpyrazoles” (FMC CORPORATION, priority 2014, dated 2019)

Experiments:
Format in all cases: in vivo
[1] = test system: barnyardgrass (Echinochloa crus-galli); assay: Test A pre-/postemergence greenhouse herbicide test, visual injury rating 0-100
Outline: (§1)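 Postemergence treatment targeted seedlings 2 to 10 cm high with one to two leaves, while preemergence treatment was a directed spray onto freshly planted loam/sand soil. Injury was scored visually about 10 days later.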

corn (Zea mays) = assay: as above
Outline: as §1

[2] = test system: giant foxtail (Setaria faberii); assay: as above
Outline: as §1

[3] = test system: large (Lg) crabgrass (Digitaria sanguinalis); assay: as above
Outline: as §1

[4] = test system: morningglory (Ipomoea spp.); assay: as above
Outline: as §1

[5] = test system: pigweed (Amaranthus retroflexus); assay: as above
Outline: as §1

[6] = test system: velvetleaf (Abutilon theophrasti); assay: as above
Outline: as §1

[7] = test system: wheat (Triticum aestivum); assay: as above
Outline: as §1

[8] = test system: galium (catchweed bedstraw, Galium aparine); assay: Test C pre-/postemergence greenhouse test, plant response rating 0-100
Outline: (§2)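 Plants were treated either at seeding (soil of loam and sand) or as 2–18 cm seedlings in a sphagnum peat mix, using test chemicals in a surfactant-containing non-phytotoxic solvent. Visual assessment relative to controls followed 13–15 days later.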

[9] = test system: morningglory (Ipomoea coccinea); assay: as above
Outline: as §2

[10] = test system: oilseed rape (Brassica napus); assay: as above
Outline: as §2

[11] = test system: chickweed (common chickweed, Stellaria media); assay: Test C postemergence greenhouse test, plant response rating 0-100; settings: for Plant response rating, Chickweed: scale 0 to 100
Outline: (§3)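 Postemergence spray of formulated test chemicals on plants 2 to 18 cm tall (1- to 4-leaf stage) grown in peat/vermiculite medium. Greenhouse hold 13 to 15 days, then visual comparison with untreated controls on a 0-100 scale (0 no effect, 100 complete control); dash means no test result.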

kochia (Kochia scoparia) = assay: as above; settings: for Plant response rating, Kochia: scale 0 to 100
Outline: as §3

wild oat (Avena fatua) = assay: as above; settings: for Plant response rating, Oat, Wild: scale 0 to 100
Outline: as §3

[12] = Postemergence, 250 g ai/ha, scale 0 to 100
[13] = Postemergence, 500 g ai/ha, scale 0 to 100

O=Cn1cc(C(=O)c2ccccc2)c(-c2cc(Cl)cc(Cl)c2)n1 [Compound 28]
0: Plant response rating (0 to 100 scale), Barnyardgrass ([1]; Postemergence, 125 g ai/ha) | Plant response rating (0 to 100 scale), Barnyardgrass ([1]; Postemergence, 500 g ai/ha) | Barnyardgrass plant response rating (0 = no effect, 100 = complete control) ([1]; Preemergence, 125 g ai/ha) | Plant response rating (0 to 100 scale), Barnyardgrass ([1]; Preemergence, 500 g ai/ha) | Plant response rating (0 to 100 scale), Corn (corn (Zea mays); Postemergence, 125 g ai/ha) | Plant response rating (0 to 100 scale), Corn (corn (Zea mays); Postemergence, 500 g ai/ha) | Corn plant response rating (0 = no effect, 100 = complete control) (corn (Zea mays); Preemergence, 125 g ai/ha) | Plant response rating (0 to 100 scale), Corn (corn (Zea mays); Preemergence, 500 g ai/ha) | Plant response rating (0 to 100 scale), Foxtail, Giant ([2]; Postemergence, 125 g ai/ha) | Plant response rating (0 to 100 scale), Foxtail, Giant ([2]; Postemergence, 500 g ai/ha) | Foxtail, Giant plant response rating (0 = no effect, 100 = complete control) ([2]; Preemergence, 125 g ai/ha) | Plant response rating (0 to 100 scale), Foxtail, Giant ([2]; Preemergence, 500 g ai/ha) | Plant response rating (0 to 100 scale), Crabgrass, Large ([3]; Postemergence, 125 g ai/ha) | Plant response rating (0 to 100 scale), Crabgrass, Large ([3]; Postemergence, 500 g ai/ha) | Crabgrass, Large plant response rating (0 = no effect, 100 = complete control) ([3]; Preemergence, 125 g ai/ha) | Plant response rating (0 to 100 scale), Crabgrass, Large ([3]; Preemergence, 500 g ai/ha) | Plant response rating (0 to 100 scale), Morningglory ([4]; Postemergence, 125 g ai/ha) | Plant response rating (0 to 100 scale), Morningglory ([4]; Postemergence, 500 g ai/ha) | Morningglory plant response rating (0 = no effect, 100 = complete control) ([4]; Preemergence, 125 g ai/ha) | Plant response rating (0 to 100 scale), Morningglory ([4]; Preemergence, 500 g ai/ha) | Plant response rating (0 to 100 scale), Wheat ([7]; Postemergence, 125 g ai/ha) | Plant response rating (0 to 100 scale), Wheat ([7]; Postemergence, 500 g ai/ha) | Wheat plant response rating (0 = no effect, 100 = complete control) ([7]; Preemergence, 125 g ai/ha) | Plant response rating (0 to 100 scale), Wheat ([7]; Preemergence, 500 g ai/ha) | Plant response rating (0 to 100), Morningglory ([9]; Postemergence, 62 g ai/ha) | Plant response rating (0 to 100), Morningglory ([9]; Postemergence, 125 g ai/ha) | Plant response rating, Morningglory [9, 12] | Plant response rating, Morningglory [9, 13] | Plant response rating, Morningglory ([9]; Preemergence, 62 g ai/ha) | Plant response rating, Morningglory ([9]; Preemergence, 125 g ai/ha) | Plant response rating, Morningglory ([9]; Preemergence, 250 g ai/ha) | Plant response rating, Morningglory ([9]; Preemergence, 500 g ai/ha) | Plant response rating (0 to 100), Oat, Wild (wild oat (Avena fatua); 62 g ai/ha) | Plant response rating (0 to 100), Oat, Wild (wild oat (Avena fatua); 125 g ai/ha) | Plant response rating, Oat, Wild (wild oat (Avena fatua); 250 g ai/ha) | Plant response rating, Oat, Wild (wild oat (Avena fatua); 500 g ai/ha)
30: Plant response rating, Galium [8, 13] | Plant response rating, Oilseed Rape ([10]; Preemergence, 125 g ai/ha)
35: Plant response rating, Galium [8, 12]
80: Plant response rating (0 to 100 scale), Pigweed ([5]; Postemergence, 125 g ai/ha) | Pigweed plant response rating (0 = no effect, 100 = complete control) ([5]; Preemergence, 125 g ai/ha) | Plant response rating (0 to 100 scale), Velvetleaf ([6]; Postemergence, 125 g ai/ha) | Plant response rating, Galium ([8]; Preemergence, 125 g ai/ha) | Plant response rating, Galium ([8]; Preemergence, 250 g ai/ha) | Plant response rating, Galium ([8]; Preemergence, 500 g ai/ha) | Plant response rating (0 to 100), Oilseed Rape ([10]; Postemergence, 62 g ai/ha) | Plant response rating (0 to 100), Kochia (kochia (Kochia scoparia); 62 g ai/ha)
98: Plant response rating, Oilseed Rape ([10]; Preemergence, 250 g ai/ha) | Plant response rating, Chickweed ([11]; 500 g ai/ha)
40: Plant response rating (0 to 100), Galium ([8]; Postemergence, 125 g ai/ha)
95: Plant response rating, Oilseed Rape [10, 13] | Plant response rating (0 to 100), Chickweed ([11]; 62 g ai/ha) | Plant response rating (0 to 100), Chickweed ([11]; 125 g ai/ha)
20: Velvetleaf plant response rating (0 = no effect, 100 = complete control) ([6]; Preemergence, 125 g ai/ha) | Plant response rating, Galium ([8]; Preemergence, 62 g ai/ha)
60: Plant response rating (0 to 100 scale), Velvetleaf ([6]; Preemergence, 500 g ai/ha)
100: Plant response rating, Oilseed Rape ([10]; Preemergence, 500 g ai/ha) | Plant response rating, Chickweed ([11]; 250 g ai/ha)
90: Plant response rating (0 to 100 scale), Pigweed ([5]; Postemergence, 500 g ai/ha) | Plant response rating (0 to 100 scale), Pigweed ([5]; Preemergence, 500 g ai/ha) | Plant response rating (0 to 100 scale), Velvetleaf ([6]; Postemergence, 500 g ai/ha) | Plant response rating, Kochia (kochia (Kochia scoparia); 500 g ai/ha)
5: Plant response rating (0 to 100), Galium ([8]; Postemergence, 62 g ai/ha) | Plant response rating, Oilseed Rape ([10]; Preemergence, 62 g ai/ha)
85: Plant response rating (0 to 100), Oilseed Rape ([10]; Postemergence, 125 g ai/ha) | Plant response rating, Oilseed Rape [10, 12] | Plant response rating (0 to 100), Kochia (kochia (Kochia scoparia); 125 g ai/ha) | Plant response rating, Kochia (kochia (Kochia scoparia); 250 g ai/ha)
